The values below come from ChEMBL document CHEMBL1201862, “PubChem BioAssay data set” (2004).

Experiment in all cases: NCI-60 cell line screen, 48 h
In assay [1] the test system is SF-295.
The subject of assay [2] is MCF7.
In assay [3] the test system is OVCAR-3.
The subject of assay [4] is RXF 393.
Assay [5] concerns PC-3.
The test system of assay [6] is A498.
Assay [7] has as its system UACC-62.
Assay [8] relates to Malme-3M.
Assay [9] concerns SK-MEL-28.
Assay [10] deals with HT-29.
For assay [11], the system named is SK-OV-3.
Assay [12] deals with A549.
In assay [13] the test system is ACHN.
Assay [14] deals with SR.
Assay [15] deals with HCT-15.
Assay [16] has as its system NCI-H460.
In assay [17] the test system is 786-0.
The test system of assay [18] is CCRF-CEM.
In assay [19] the test system is MDA-MB-435.
Assay [20] deals with U-251.

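Protocol summary: plate cells (96-well), add compound at 5 concentrations, incubate 48 h, interpolate endpoints linearly. Here, GI50 denotes the concentration required for 50% inhibition of growth.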 Calls of active or inactive are those of the source. No stated cut-off is given here; in the data, active = GI50 up to about 1.1 µM and inactive = higher.

On to `c1ccc(CNc2c3c(nc4ccccc24)CCC3)cc1`, for which the GI50 in [1] was 6.84 µM (inactive); in [2], 13.8 µM (inactive); in assay [3] it was 12.2 µM (inactive); in [4] it was 14 µM (inactive); in assay [5], 13.2 µM (inactive); in assay [6], 11.7 µM (inactive). In addition, the GI50 in [7] was 12.8 µM (inactive); in [8] it was 17.3 µM (inactive); in assay [9], 11.8 µM (inactive); in assay [10] it was 5.52 µM (inactive); in assay [11] it was 15.4 µM (inactive); in [12], 15.1 µM (inactive). For the same compound, the GI50 in assay [13] is 17.5 µM (inactive); in [14] it was 13.4 µM (inactive); in assay [15] it was 18.9 µM; in [16] it was 10.6 µM (inactive); in [17] it was 13.4 µM (inactive); in assay [18], 3.79 µM (inactive). Also, the GI50 in [19] is 15.3 µM (inactive); in assay [20], 14.9 µM (inactive).
Regarding `COC1CCC(OC2CC(C3(C)CCC4(CC(O)C(C)C(C(C)/C=C(\C)C(=O)C(C)CC(C)C(=O)O)O4)O3)OC3(OC(C4OC(O)(CO)C(C)CC4C)CC3C)C2C)OC1C` (stereo not given), the GI50 in [1] was 0.179 µM (active); in [2] it was < 0.0208 µM (active); in assay [3] it was < 0.01 µM (active); in [4], < 0.01 µM (active); in assay [5] it was < 0.01 µM (active); in [6], < 0.0169 µM (active). In addition, the GI50 in assay [7] is 0.132 µM (active); in assay [8] it was < 0.0205 µM (active); in assay [9] it was 0.0362 µM (active); in [10], < 0.0313 µM (active); in assay [11] it was 0.528 µM (active); in [12], < 0.0154 µM (active). Also, the GI50 in [13] was < 0.038 µM (active); in [14] it was < 0.01 µM (active); in assay [15], 0.0351 µM; in assay [16] it was < 0.0144 µM (active); in [17] it was < 0.0341 µM (active); in assay [18], < 0.01 µM (active). Moreover, the values for the GI50 in assay [19] and in [20] were 0.0923 µM (active) and < 0.0166 µM (active), respectively.
As to `O=C1CC2SC(COCc3ccccc3)(CCN2Cc2ccccc2)C1` (stereo not given), the GI50 in [1] is 61.2 µM (inactive); in assay [2] it was 31 µM (inactive); in assay [3], > 100 µM (inactive); in [4], > 100 µM (inactive); in assay [5] it was 35 µM (inactive); in assay [6] it was > 100 µM (inactive). The GI50 is 81.1 µM (inactive) in assay [7]; 39.3 µM (inactive) in assay [8]; > 100 µM (inactive) in assay [9]; 31.6 µM (inactive) in assay [10]; > 100 µM (inactive) in assay [11]; 51.2 µM (inactive) in [12]. Further, the GI50 was 82.2 µM (inactive) in assay [13]; 35.2 µM (inactive) in [14]; 40.6 µM in assay [15]; 54.6 µM (inactive) in [16]; > 100 µM (inactive) in [17]; 65 µM (inactive) in assay [18]. The GI50 in assay [19] was 51.6 µM (inactive); in assay [20], 66.8 µM (inactive).
As for `CCCC(=O)OCC1OC(n2cc(F)c(=O)[nH]c2=O)CC1OC(=O)CCC` (stereo not given), the GI50 is 0.127 µM (active) in assay [1]; 0.0169 µM (active) in [2]; 1.67 µM (inactive) in assay [3]; > 9.2 µM (inactive) in assay [4]; 1.55 µM (inactive) in assay [5]; 0.484 µM (active) in assay [6]. Further, the GI50 in assay [7] was 0.177 µM (active); in assay [8], > 6.43 µM (inactive); in assay [9] it was > 6.68 µM (inactive); in assay [11], > 2.93 µM (inactive); in [12], 0.0578 µM (active); in [13], 0.0441 µM (active). The GI50 in assay [14] is 0.034 µM (active); in assay [15], greater than 4.41 µM; in assay [16], 0.119 µM (active); in [17] it was 0.434 µM (active); in assay [18], 0.0295 µM (active); in assay [19] it was 3.95 µM (inactive). The GI50 in assay [20] is 3.26 µM (inactive).
In the case of `CCN(CC)C(=S)N/N=C/c1cc(OC)ccc1O`, the GI50 in assay [1] was 4.11 µM (inactive); in assay [2], 3.84 µM (inactive); in [3] it was 2.1 µM (inactive); in [4], 9.04 µM (inactive); in assay [5], 8.85 µM (inactive); in assay [6], 2.02 µM (inactive). In addition, the GI50 in [7] was 4.25 µM (inactive); in assay [8], 4.23 µM (inactive); in [9] it was 3.72 µM (inactive); in assay [10], 7 µM (inactive); in assay [11] it was 5.21 µM (inactive); in assay [12] it was 4.17 µM (inactive). The GI50 in assay [13] is 2.98 µM (inactive); in assay [14] it was 2.76 µM (inactive); in assay [15], 1.36 µM; in assay [16], 1.66 µM (inactive); in assay [17] it was 2.75 µM (inactive); in [18], 0.895 µM (active). Further, the figures for the GI50 in [19] and in [20] were 6.18 µM (inactive) and 3.61 µM (inactive), respectively.
In the case of `COC(=O)C1=C(C)NC(C)=C(C(=O)OC)C1c1ccc(NO)cc1`, the GI50 in assay [1] was 17 µM (inactive); in [2] it was 8.11 µM (inactive); in [3], 12.9 µM (inactive); in [4], 15.8 µM (inactive); in assay [5] it was 13.4 µM (inactive); in assay [6], 29.8 µM (inactive). For the same compound, the GI50 was 13 µM (inactive) in [7]; 13 µM (inactive) in assay [8]; 17.5 µM (inactive) in [9]; 7.01 µM (inactive) in assay [10]; 23.4 µM (inactive) in assay [11]; 18.2 µM (inactive) in [12]. The GI50 in assay [13] is 12.6 µM (inactive); in assay [14], 2.47 µM (inactive); in [15], 10.9 µM; in assay [16] it was 14.9 µM (inactive); in assay [17] it was 15.5 µM (inactive); in assay [18], 0.897 µM (active). The GI50 is 14.1 µM (inactive) in assay [19] and 15.9 µM (inactive) in assay [20].
As for `O=C1C(CN2CCCCC2)CCC1CN1CCCCC1` (stereo not given), the GI50 in assay [1] was > 46.5 µM (inactive); in [2], 21.9 µM (inactive); in [3], 17.1 µM (inactive); in [4] it was 14.8 µM (inactive); in assay [5] it was 27.1 µM (inactive); in assay [6], 15.2 µM (inactive). The GI50 in [7] was 17.3 µM (inactive); in assay [8], 17.7 µM (inactive); in [9] it was 20 µM (inactive); in [10], 20.9 µM (inactive); in assay [11], > 100 µM (inactive); in [12], > 96.6 µM (inactive). Besides, the GI50 is 26 µM (inactive) in assay [13]; 1.6 µM (inactive) in assay [14]; 20 µM in assay [15]; > 100 µM (inactive) in [16]; 19.5 µM (inactive) in [17]; 1.06 µM (active) in [18]. Also, the GI50 in [19] was 33 µM (inactive); in assay [20] it was > 46.7 µM (inactive).
In the case of `CCCN1CCC(=O)N(CCC(F)(F)C(F)(F)C(F)(F)C(F)(F)C(F)(F)C(F)(F)F)C1=S`, the GI50 in assay [1] is > 100 µM (inactive); in [2], > 100 µM (inactive); in [3], > 100 µM (inactive); in [4] it was 99.5 µM (inactive); in assay [5], > 100 µM (inactive); in [6] it was > 100 µM (inactive). Also, the GI50 in [7] is > 100 µM (inactive); in assay [8], > 100 µM (inactive); in assay [9], > 100 µM (inactive); in [10] it was 90.6 µM (inactive); in assay [11], > 100 µM (inactive); in [12], > 100 µM (inactive). Further, the GI50 in assay [13], in [14], in assay [16], in assay [17], in assay [18] and in assay [19] was > 100 µM (inactive) each time. Also, the GI50 in assay [20] is > 100 µM (inactive).
As to `Cc1ccc(NC(=O)/C(Cc2cc(=O)oc3cc(O)ccc23)=N\NC(C)(C)C)cc1C`, the GI50 in assay [1], in assay [2], in assay [3], in [4], in assay [5] and in [6] was > 100 µM (inactive) throughout. The GI50 in assay [7], in [9], in [10], in assay [11], in assay [12] and in assay [13] was > 100 µM (inactive) throughout. Moreover, the GI50 in assay [14] was > 100 µM (inactive); in assay [15], greater than 100 µM; in assay [16], > 100 µM (inactive); in assay [17], > 100 µM (inactive); in assay [18] it was > 100 µM (inactive); in [19] it was > 100 µM (inactive). Besides, in assay [20], the GI50 was > 100 µM (inactive).
For `Clc1ccc(-c2nnc(-c3c(Cl)c(Cl)c(Cl)c(Cl)c3-c3nc4ccccc4[nH]3)o2)cc1`, the GI50 in assay [1] was 48.5 µM (inactive); in assay [2] it was 35.1 µM (inactive); in [3], 61.7 µM (inactive); in assay [4] it was 40.7 µM (inactive); in [5], 97.5 µM (inactive); in assay [6], 82.8 µM (inactive). Also, the GI50 in assay [7] was 63.4 µM (inactive); in assay [8] it was > 100 µM (inactive); in assay [9] it was > 100 µM (inactive); in assay [10] it was 98.9 µM (inactive); in [11], > 100 µM (inactive); in [13] it was 97.3 µM (inactive). Besides, the GI50 was 34.3 µM (inactive) in [14]; 55.3 µM in assay [15]; 44 µM (inactive) in assay [16]; 50.4 µM (inactive) in assay [17]; 59.4 µM (inactive) in assay [18]; > 100 µM (inactive) in assay [19].
